Results: patent US20240368694A1 (priority 2021, published 2024)

Key:
[1] = system: insulin like growth factor 1 (IGF1); details: serum levels of growth hormones (Wang et al. 2019; Wu et al. 2013, 2015); cited from earlier work
[2] = system: miRNA expression profiles in liver and jejunum; design: species or system Sus scrofa; details: in vivo
[3] = system: serum interleukins IL1β, IL-8, IL-13, tumor necrosis factor or interferon-gamma; details: pigs, 3.3-3.8 ppm DON in feed (Pasternak et al. 2018); cited from earlier work
[4] = system: ssc-miR-16, ssc-miR-128, ssc-miR-205 and ssc-miR-451 in serum; design: species or system Sus scrofa; details: in vivo
[5] = system: miRNAs in serum; design: species or system Sus scrofa; details: in vivo
[6] = pigs, cited from earlier work

**Q.** With CC1=C[C@H]2O[C@@H]3[C@H](O)C[C@](C)([C@@]2(CO)[C@H](O)C1=O)[C@]31CO1 [DON, (3α,7α)-3,7,15-trihydroxy-12,13-epoxytrichothec-9-en-8-one] as the compound, how does the “dietary DON concentrations at which a decrease of serum IGF1 was reported” value [1] read?
**A.** ≥ 3 ppm

**Q.** And the “differentially expressed miRNAs in liver, Control vs DON high” value [2]?
**A.** one differentially expressed miRNA, namely ssc-miR-10b

**Q.** What about the “differentially expressed miRNAs in tissues, Control vs DON low” value [2] of the same compound?
**A.** no differentially expressed miRNAs

**Q.** What about the “effect on the miRNA expression profiles in liver and jejunum” value [2] of the same compound?
**A.** did not exhibit a strong effect

**Q.** And the “effect on serum interleukins IL1β, IL-8, IL-13, tumor necrosis factor or interferon-gamma” value [3]?
**A.** had no effect

**Q.** And the “ssc-miR-16 normalized Cq-value log 2 fold change in the DON groups compared to the Control” value [4]?
**A.** increased

**Q.** And the “ssc-miR-16 qPCR log2 fold change, DON_high vs Control” value [4]?
**A.** 2.227

**Q.** And the “ssc-miR-16 qPCR log2 fold change, DON_low vs Control” value [4]?
**A.** 3.504

**Q.** And the “ssc-miR-128 normalized Cq-value log 2 fold change in the DON groups compared to the Control” value [4]?
**A.** increased

**Q.** And the “ssc-miR-128 qPCR log2 fold change, DON_high vs Control” value [4]?
**A.** 1.879

**Q.** What about the “ssc-miR-128 qPCR log2 fold change, DON_low vs Control” value [4] of the same compound?
**A.** 3.885

**Q.** And the “ssc-miR-205 normalized Cq-value log 2 fold change in the DON groups compared to the Control” value [4]?
**A.** increased

**Q.** What about the “ssc-miR-205 qPCR log2 fold change, DON_high vs Control” value [4] of the same compound?
**A.** 2.455

**Q.** What about the “ssc-miR-205 qPCR log2 fold change, DON_low vs Control” value [4] of the same compound?
**A.** 4.973

**Q.** And the “ssc-miR-451 normalized Cq-value log 2 fold change in the DON groups compared to the Control” value [4]?
**A.** increased

**Q.** What about the “ssc-miR-451 qPCR log2 fold change, DON_high vs Control” value [4] of the same compound?
**A.** 1.835

**Q.** What about the “ssc-miR-451 qPCR log2 fold change, DON_low vs Control” value [4] of the same compound?
**A.** 2.663

**Q.** And the “number of serum miRNAs significantly altered in both DON low and DON high” value [5]?
**A.** eight

**Q.** What about the “number of serum miRNAs significantly altered, DON high vs Control” value [5] of the same compound?
**A.** 16

**Q.** And the “number of serum miRNAs significantly altered, DON low vs Control” value [5]?
**A.** 15

**Q.** And the “ssc-let-7a Log2 fold vs Control, DON high” value [5]?
**A.** −0.502

**Q.** What about the “ssc-let-7a Log2 fold vs Control, DON low” value [5] of the same compound?
**A.** n.s.

**Q.** What about the “ssc-let-7f-5p Log2 fold vs Control, DON high” value [5] of the same compound?
**A.** −0.503

**Q.** And the “ssc-let-7f-5p Log2 fold vs Control, DON low” value [5]?
**A.** n.s.

**Q.** And the “ssc-let-7g Log2 fold vs Control, DON high” value [5]?
**A.** 0.662

**Q.** And the “ssc-let-7g Log2 fold vs Control, DON low” value [5]?
**A.** n.s.

**Q.** And the “ssc-miR-10a-5p Log2 fold vs Control, DON high” value [5]?
**A.** n.s.

**Q.** And the “ssc-miR-10a-5p Log2 fold vs Control, DON low” value [5]?
**A.** −0.806

**Q.** And the “ssc-miR-10b Log2 fold vs Control, DON high” value [5]?
**A.** −0.754

**Q.** And the “ssc-miR-10b Log2 fold vs Control, DON low” value [5]?
**A.** −1.129

**Q.** What about the “ssc-miR-10b direction of change in serum upon DON treatment” value [5] of the same compound?
**A.** down-regulated

**Q.** What about the “ssc-miR-16 Log2 fold vs Control, DON high” value [5] of the same compound?
**A.** 0.773

**Q.** What about the “ssc-miR-16 Log2 fold vs Control, DON low” value [5] of the same compound?
**A.** 1.217

**Q.** And the “ssc-miR-16 direction of change in serum of DON exposed pigs” value [5]?
**A.** up-regulated

**Q.** What about the “ssc-miR-17-5p Log2 fold vs Control, DON high” value [5] of the same compound?
**A.** 1.194

**Q.** And the “ssc-miR-17-5p Log2 fold vs Control, DON low” value [5]?
**A.** n.s.

**Q.** And the “ssc-miR-92a Log2 fold vs Control, DON high” value [5]?
**A.** 0.476

**Q.** What about the “ssc-miR-92a Log2 fold vs Control, DON low” value [5] of the same compound?
**A.** n.s.

**Q.** What about the “ssc-miR-92b-3p Log2 fold vs Control, DON high” value [5] of the same compound?
**A.** n.s.

**Q.** And the “ssc-miR-92b-3p Log2 fold vs Control, DON low” value [5]?
**A.** −1.058

**Q.** What about the “ssc-miR-99b Log2 fold vs Control, DON high” value [5] of the same compound?
**A.** −1.226

**Q.** And the “ssc-miR-99b Log2 fold vs Control, DON low” value [5]?
**A.** −1.393

**Q.** What about the “ssc-miR-99b direction of change in serum upon DON treatment” value [5] of the same compound?
**A.** down-regulated

**Q.** And the “ssc-miR-103 Log2 fold vs Control, DON high” value [5]?
**A.** −0.630

**Q.** And the “ssc-miR-103 Log2 fold vs Control, DON low” value [5]?
**A.** n.s.

**Q.** And the “ssc-miR-107 Log2 fold vs Control, DON high” value [5]?
**A.** −0.619

**Q.** What about the “ssc-miR-107 Log2 fold vs Control, DON low” value [5] of the same compound?
**A.** n.s.

**Q.** And the “ssc-miR-126-5p Log2 fold vs Control, DON high” value [5]?
**A.** n.s.

**Q.** And the “ssc-miR-126-5p Log2 fold vs Control, DON low” value [5]?
**A.** −1.298

**Q.** What about the “ssc-miR-128 Log2 fold vs Control, DON high” value [5] of the same compound?
**A.** 0.887

**Q.** What about the “ssc-miR-128 Log2 fold vs Control, DON low” value [5] of the same compound?
**A.** 1.124

**Q.** And the “ssc-miR-128 direction of change in serum of DON exposed pigs” value [5]?
**A.** up-regulated

**Q.** And the “ssc-miR-148a-3p Log2 fold vs Control, DON high” value [5]?
**A.** 0.521

**Q.** What about the “ssc-miR-148a-3p Log2 fold vs Control, DON low” value [5] of the same compound?
**A.** n.s.

**Q.** What about the “ssc-miR-192 Log2 fold vs Control, DON high” value [5] of the same compound?
**A.** −0.928

**Q.** And the “ssc-miR-192 Log2 fold vs Control, DON low” value [5]?
**A.** −1.133

**Q.** What about the “ssc-miR-192 direction of change in serum upon DON treatment” value [5] of the same compound?
**A.** down-regulated

**Q.** And the “ssc-miR-205 Log2 fold vs Control, DON high” value [5]?
**A.** 5.102

**Q.** What about the “ssc-miR-205 Log2 fold vs Control, DON low” value [5] of the same compound?
**A.** 5.774

**Q.** What about the “ssc-miR-205 direction of change in serum of DON exposed pigs” value [5] of the same compound?
**A.** up-regulated

**Q.** And the “ssc-miR-339-5p Log2 fold vs Control, DON high” value [5]?
**A.** n.s.

**Q.** What about the “ssc-miR-339-5p Log2 fold vs Control, DON low” value [5] of the same compound?
**A.** 1.346

**Q.** What about the “ssc-miR-339 Log2 fold vs Control, DON high” value [5] of the same compound?
**A.** n.s.

**Q.** And the “ssc-miR-339 Log2 fold vs Control, DON low” value [5]?
**A.** 1.345

**Q.** And the “ssc-miR-361-3p Log2 fold vs Control, DON high” value [5]?
**A.** n.s.

**Q.** What about the “ssc-miR-361-3p Log2 fold vs Control, DON low” value [5] of the same compound?
**A.** 2.023

**Q.** What about the “ssc-miR-374a-3p Log2 fold vs Control, DON high” value [5] of the same compound?
**A.** −1.443

**Q.** What about the “ssc-miR-374a-3p Log2 fold vs Control, DON low” value [5] of the same compound?
**A.** −1.271

**Q.** What about the “ssc-miR-374a-3p direction of change in serum upon DON treatment” value [5] of the same compound?
**A.** down-regulated

**Q.** What about the “ssc-miR-451 Log2 fold vs Control, DON high” value [5] of the same compound?
**A.** 0.808

**Q.** And the “ssc-miR-451 Log2 fold vs Control, DON low” value [5]?
**A.** 1.375

**Q.** What about the “ssc-miR-451 direction of change in serum of DON exposed pigs” value [5] of the same compound?
**A.** up-regulated

**Q.** What about the “ssc-miR-1388 Log2 fold vs Control, DON high” value [5] of the same compound?
**A.** n.s.

**Q.** What about the “ssc-miR-1388 Log2 fold vs Control, DON low” value [5] of the same compound?
**A.** −1.281

**Q.** What about the “doses of DON in feed starting from which feed consumption and weight gain decrease” value ([6]; EFSA summary of multiple feeding trials) of the same compound?
**A.** 0.6-2.0 ppm

**Q.** What about the “effect on body weight at 3 ppm DON” value ([6]; exposure to 3 ppm DON (Grenier et al. 2011, 2013)) of the same compound?
**A.** does not necessarily result in significant effects on body weight
